Among the data in patent publication US10703756B2, “Pyrrolo[2,3-D]pyrimidinyl, pyrrolo[2,3-B]pyrazinyl, pyrrolo[2,3-B]pyridinyl acrylamides and epoxides thereof” (Pfizer Inc., priority 2015, dated 2020) are IC50 and half-life values, retold here.

The target of series [1] is T1, JAK3 enzyme (Homo sapiens, UniProt P52333).
T1 sequence (P52333 1-1124): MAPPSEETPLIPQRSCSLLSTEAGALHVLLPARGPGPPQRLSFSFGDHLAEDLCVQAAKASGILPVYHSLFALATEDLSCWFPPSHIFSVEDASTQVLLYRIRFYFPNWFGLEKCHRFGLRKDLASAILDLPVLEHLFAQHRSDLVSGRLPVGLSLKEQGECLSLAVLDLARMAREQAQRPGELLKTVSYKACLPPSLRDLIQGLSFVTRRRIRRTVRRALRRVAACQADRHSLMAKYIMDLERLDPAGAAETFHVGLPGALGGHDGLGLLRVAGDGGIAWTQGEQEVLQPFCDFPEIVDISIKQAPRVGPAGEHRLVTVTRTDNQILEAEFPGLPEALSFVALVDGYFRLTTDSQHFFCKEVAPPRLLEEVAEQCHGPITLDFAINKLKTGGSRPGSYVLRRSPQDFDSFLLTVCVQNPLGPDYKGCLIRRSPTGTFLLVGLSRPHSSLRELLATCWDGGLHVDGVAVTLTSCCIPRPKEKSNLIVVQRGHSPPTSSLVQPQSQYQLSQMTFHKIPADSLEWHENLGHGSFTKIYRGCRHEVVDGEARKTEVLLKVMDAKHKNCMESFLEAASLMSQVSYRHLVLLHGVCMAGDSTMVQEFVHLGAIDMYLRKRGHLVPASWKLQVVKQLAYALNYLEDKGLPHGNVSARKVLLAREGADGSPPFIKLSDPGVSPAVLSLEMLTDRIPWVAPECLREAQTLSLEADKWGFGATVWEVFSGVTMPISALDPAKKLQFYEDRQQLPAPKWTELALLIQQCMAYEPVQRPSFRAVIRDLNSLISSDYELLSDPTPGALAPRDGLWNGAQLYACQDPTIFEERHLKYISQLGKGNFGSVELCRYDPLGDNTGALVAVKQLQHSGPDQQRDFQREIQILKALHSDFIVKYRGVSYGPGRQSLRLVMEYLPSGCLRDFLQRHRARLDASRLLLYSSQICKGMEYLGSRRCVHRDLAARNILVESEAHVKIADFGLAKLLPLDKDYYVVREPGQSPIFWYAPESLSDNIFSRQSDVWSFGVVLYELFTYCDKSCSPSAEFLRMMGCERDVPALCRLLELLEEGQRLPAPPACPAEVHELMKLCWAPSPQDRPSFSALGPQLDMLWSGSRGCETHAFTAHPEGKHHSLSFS
Nature of the series: JAK Caliper Enzyme Assay at 1 mM ATP. The format is biochemical. The method, boiled down: (§1)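 Read-out: microfluidic mobility-shift separation quantifying substrate peptide versus phosphopeptide. Compounds were tested as 11-point half-log dilutions, top 600 μM in DMSO before transfer. Enzyme level and reaction time were tuned for each prep so conversion stayed at 20%-30%.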

In series [2] the target is T1, JAK3 enzyme. Nature of the series: JAK Caliper Enzyme Assay at 4 μM ATP. The format is biochemical. An outline of the steps: as §1
Series [3] in a line: Stability of JAK3 Covalent Inhibitors in Human Whole Blood. Format: in vitro ADME. The settings on record: both sexes, 1 μM test compound, 37° C., 180 min incubation, read-out: Human blood stability t1/2. As to the method: Stability of JAK3 Covalent Inhibitors in Rat and Human Whole Blood
Rat blood was collected from 3 male Sprague-Dawley rats (200-250 g, Charles River Laboratories) and pooled for each study. Human blood was collected from healthy subjects at the Occupational Health & Wellness Center at Pfizer, Groton, Conn. and pooled for each study. Both rat and human blood was collected freshly into K2-EDTA tubes and kept on ice. An aliquot of the blood was transferred to microtubes and pre-warmed for 10 min at 37° C. using a heat block. The test compound was then added (1 μM final concentration) and the incubation was continued for 180 min at 37° C. in duplicates. An aliquot of the incubation mixture was removed at designated time points during the course of the incubation, mixed with an aliquot of acetonitrile containing an internal standard, vortexed and centrifuged. The resulting supernatants were removed and subjected to LC-MS/MS analyses to determine parent compound concentrations. Peak area ratios of the parent compound vs the internal standard were used to determine the % of parent compound remaining vs incubation time.

The subject of series [4] is IL-15 induced P-STAT5 in human PBMC. Nature of the series: PBMC IL-15 Induced P-STAT5. The settings on record: human PBMC, IL-15 final 41 ng/mL; read-out: PBMC IL15_pSTAT5_IC50. The format is cell-based. An outline of the steps:
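Flow cytometry gated on total lymphocytes measured STAT5 staining (Alexa Fluor 647 antibody, overnight, 4 °C) in fixed, methanol-permeabilised human PBMC. Cells had received compound for 15 min at 37 °C (0.2% DMSO final), followed by 41 ng/mL final human IL-15 for 15 min.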

As to `C=CC(=O)N1C[C@H](Nc2cnc3[nH]cc(C(=O)N[C@@H](C)COC)c3n2)CC[C@@H]1C` (single isomer, unassigned) [Example 66], the IC50 was 412 nM on JAK3 enzyme [1] and 6.21 nM against JAK3 enzyme [2]. For the same molecule, in series [3], the half-life at 1 μM was above 6 h.

As for `C=CC(=O)N1CC[C@H](Nc2cnc3c(n2)c(C(=O)NCC)cn3C)C[C@@H]1C` (single isomer, unassigned) [Example 350], the IC50 at JAK3 enzyme [1] stood at 4370 nM; against JAK3 enzyme [2] it was 32.1 nM. Also, the half-life at 1 μM in series [3] is above 6 h.

As for `C=CC(=O)N1CCC(Oc2cnc3[nH]cc(-c4nnco4)c3n2)CC1` [Example 128, 1-(4-{[7-(1,3,4-Oxadiazol-2-yl)-5H-pyrrolo[2,3-b]pyrazin-2-yl]oxy}piperidin-1-yl)propan-2-en-1-one], the IC50 on JAK3 enzyme [1] worked out at 787 nM; on JAK3 enzyme [2], 6.67 nM. Also, in series [3], the half-life at 1 μM is above 6 h.

With `C=CC(=O)N1CCC(Oc2cnc3[nH]cc(-c4n[nH]c(C)n4)c3n2)CC1` [Example 115, 1-(4-{[7-(5-Methyl-1H-1,2,4-triazol-3-yl)-5H-pyrrolo[2,3-b]pyrazin-2-yl]oxy}piperidin-1-yl)prop-2-en-1-one], the figures for the IC50 against JAK3 enzyme [1] and at JAK3 enzyme [2] were 929 nM and 8.31 nM, respectively. Besides, the half-life at 1 μM in series [3] turned out to be 3.77 h.

For `C=CC(=O)N1CCC(Oc2cnc3[nH]cc(-c4ncnn4CC)c3n2)CC1` [Example 121, 1-(4-((7-(1-ethyl-1H-1,2,4-triazol-5-yl)-5H-pyrrolo[2,3-b]pyrazin-2-yl)oxy)piperidin-1-yl)prop-2-en-1-one], the IC50 against JAK3 enzyme [1] was found to be 921 nM; against JAK3 enzyme [2] it was 6.96 nM. For the same molecule, the half-life at 1 μM in series [3] is 2.67 h.

Turning to `C=CC(=O)N1CCC(Nc2cnc3[nH]cc(C(=O)NCCC)c3n2)CC1` [Example 170, 2-[(1-acryloylpiperidin-4-yl)amino]-N-propyl-5H-pyrrolo[2,3-b]pyrazine-7-carboxamide], the IC50 came out at 4 nM at JAK3 enzyme [1] and 0.508 nM against JAK3 enzyme [2]. Moreover, in series [3], the half-life at 1 μM amounted to 5.13 h.

In the case of `C=CC(=O)N1C[C@H](Oc2cnc3[nH]cc(C(=O)N[C@@H](C)COC)c3n2)CC[C@@H]1C` (single isomer, unassigned) [Example 81], at JAK3 enzyme [1], the IC50 amounted to 76.9 nM. In addition, the half-life at 1 μM in series [3] was above 6 h.

For `C=CC(=O)N1C[C@@H](Nc2cnc3[nH]cc(C(=O)N[C@H](C)COC)c3n2)CC[C@H]1C` (single isomer, unassigned) [Example 70], the IC50 against JAK3 enzyme [1] was 1390 nM; against JAK3 enzyme [2], 9.1 nM. The half-life at 1 μM in series [3] is above 6 h.

As for `C=CC(=O)N1CC[C@H](COc2cnc3[nH]cc(C(=O)N[C@@H](C)COC)c3n2)C1` (single isomer, unassigned) [Example 11], the IC50 against JAK3 enzyme [1] came to 308 nM; on JAK3 enzyme [2], 1.61 nM. The half-life at 1 μM in series [3] worked out at 3.46 h.

With `C=CC(=O)N1CCC[C@@H](Oc2cnc3[nH]cc(C(=O)N[C@@H](C)COC)c3n2)C1` [Example 49, 2-{[(3R)-1-acryloylpiperidin-3-yl]oxy}-N-[(2S)-1-methoxypropan-2-yl]-5H-pyrrolo[2,3-b]pyrazine-7-carboxamide], the values for the IC50 against JAK3 enzyme [1] and against JAK3 enzyme [2] were 2100 nM and 27.1 nM, respectively. Also, the half-life at 1 μM in series [3] is 3.27 h.

For the molecule `C=CC(=O)N1CCC(C)(Nc2cnc3[nH]cc(C(=O)NCC4CC(F)(F)C4)c3n2)CC1` [Example 306, 2-[(1-acryloyl-4-methylpiperidin-4-yl)amino]-N-[(3,3-difluorocyclobutyl)methyl]-5H-pyrrolo[2,3-b]pyrazine-7-carboxamide], the results for the IC50 (in series [4]; against JAK3 enzyme [1]; against JAK3 enzyme [2]) were 1570 nM, 107 nM and 0.705 nM, respectively.

Turning to `C=CC(=O)N1CCC(Oc2cnc3[nH]cc([C@@H](C)O)c3n2)CC1` (single isomer, unassigned) [Example 119], the IC50 came to 9310 nM in series [4], 3930 nM against JAK3 enzyme [1] and 34.2 nM against JAK3 enzyme [2].

Turning to `C=CC(=O)N1CCC(Oc2cnc3[nH]cc(C(=O)NCC4(O)CCCC4)c3n2)CC1` (racemic) [Example 206, Racemic-2-[(1-acryloylpiperidin-4-yl)oxy]-N-[(1-hydroxycyclopentyl)methyl]-5H-pyrrolo[2,3-b]pyrazine-7-carboxamide], the IC50 in series [4] turned out to be 3100 nM; at JAK3 enzyme [1] it was 325 nM; against JAK3 enzyme [2] it was 2.79 nM.

As to `C=CC(=O)N1CC[C@@H](Nc2cnc3[nH]cc(C(=O)NCC)c3n2)[C@H](OC)C1` (racemic) [Example 25, Trans-racemic-2-{[1-acryloyl-3-methoxypiperidin-4-yl]amino}-N-ethyl-5H-pyrrolo[2,3-b]pyrazine-7-carboxamide], the figures for the IC50 (in series [4]; against JAK3 enzyme [1]; on JAK3 enzyme [2]) were 1600 nM, 92 nM and 1.33 nM, respectively.

On to `C=CC(=O)N1CCC(C)(Nc2cnc3[nH]cc(C(=O)NCC(C)(F)F)c3n2)CC1` [Example 296, 2-[(1-acryloyl-4-methylpiperidin-4-yl)amino]-N-(2,2-difluoropropyl)-5H-pyrrolo[2,3-b]pyrazine-7-carboxamide], for which the IC50 amounted to 609 nM in series [4], 57 nM against JAK3 enzyme [1] and 0.519 nM at JAK3 enzyme [2].

On to `C=CC(=O)N1CCC(C)(Nc2cnc3[nH]cc(C(=O)NCCCC(F)(F)F)c3n2)CC1` [Example 333, 2-[(1-acryloyl-4-methylpiperidin-4-yl)amino]-N-(4,4,4-trifluorobutyl)-5H-pyrrolo[2,3-b]pyrazine-7-carboxamide], for which the IC50 in series [4] worked out at 774 nM; against JAK3 enzyme [1], 44 nM; against JAK3 enzyme [2], 0.307 nM.

For the molecule `C=CC(=O)N1CCC(Oc2cnc3[nH]cc(C(=O)NCC(C)(F)F)c3n2)CC1` [Example 215, 2-[(1-acryloylpiperidin-4-yl)oxy]-N-(2,2-difluoropropyl)-5H-pyrrolo[2,3-b]pyrazine-7-carboxamide], the IC50 in series [4] turned out to be 619 nM; against JAK3 enzyme [1], 97 nM; against JAK3 enzyme [2], 0.782 nM.

On to `C=CC(=O)N1CC[C@H](Nc2cnc3[nH]cc(C(=O)N[C@@H]4C[C@H]4C(F)(F)F)c3n2)[C@H](OC)C1` [Example 271, 2-{[(3R,4S)-1-acryloyl-3-methoxypiperidin-4-yl]amino}-N-[(1R,2R)-2-(trifluoromethyl)cyclopropyl]-5H-pyrrolo[2,3-b]pyrazine-7-carboxamide], for which the figures for the IC50 (in series [4]; at JAK3 enzyme [1]; against JAK3 enzyme [2]) were 1140 nM, 144 nM and 0.676 nM, respectively.

On to `C=CC(=O)N1CCN(c2cnc3[nH]cc(C(=O)NCC(C)(C)C)c3n2)CC1(C)C` [Example 285, 2-(4-acryloyl-3,3-dimethylpiperazin-1-yl)-N-(2,2-dimethylpropyl)-5H-pyrrolo[2,3-b]pyrazine-7-carboxamide], for which the IC50 in series [4] is 1790 nM; against JAK3 enzyme [1] it was 515 nM; at JAK3 enzyme [2] it was 4.05 nM.

Consider `C=CC(=O)N1C[C@H](Nc2ncnc3[nH]ccc23)CC[C@@H]1[C@H](C)O` (racemic) [Example 112], for which the IC50 in series [4] came out at 1010 nM; against JAK3 enzyme [1], 181 nM; against JAK3 enzyme [2], 1.03 nM.
